Test results from patent US20220304946A1 (priority 2021, published 2022).
“Also recorded” adds a separate entry of the source. Read-outs that look alike come from different tables or passages of the source. Where a SMILES comes first, the peptide text is derived from it. Bridges are numbered along the chain shown (N, C = ends). [ ]: non-standard residue; d: D form. The star is where a group is joined. Ileψ(thiazoline)Cys = CC[C@H](C)[C@H](N)C1=N[C@H](C(=O)*)CS1; dOrn = NCCC[C@@H](N)C(=O)O

How the values were obtained:
[1] = molecular target: prolyl endopeptidase (PEP) (UniProt P27028); assay: PEP inhibitory activity assay (modified Yoshimoto et al. method, Z-Gly-Pro-pNA substrate); assay type: biochemical
Experimental: PEP inhibitory activity was evaluated with minor modification of the Yoshimoto et al. method. Briefly, 150 μL of sodium phosphate buffer (50 mM, pH 7.0), and 10 μL of the test compound (0.5 mM in DMSO) were added into a 96-well plate, followed by adding 20 μL solution containing 0.02 units of PEP enzyme. In the Blank reaction, 20 μL of DMSO was added instead of the test compound, while bacitracin (0.5 mM) was used as the positive control. The incubation of the reaction mixture was carried out for 15 min at 30° C. after which a pre-read was taken at 410 nm. Next, 0.4 mM solution of Z-Gly-Pro-pNA was formed in aqueous 1,4-dioxane (40%), followed by taking the optical density (O.D.) of the reaction mixture at a wavelength of 410 nm for 40 min using a 96-well plate reader (SpectraMax-384, Molecular Devices, CA, USA).
Each reaction was repeated thrice and the differences in the results of each experiment were collectively expressed as the standard error of the mean (SEM).
% Inhibition=100−(O.D. test compound/O.D. Control)×100

[2] = molecular target: prolyl endopeptidase (PEP) (UniProt P27028); assay: Kinetic assay of PEP inhibition (Lineweaver-Burk and Dixon plots); assay type: biochemical
Experimental: That in which way it inhibits the PEP catalytic activity i.e. competitive inhibition, non-competitive inhibition, mixed or uncompetitive inhibition. […] The reaction was started post adding four various concentrations of Z-Gly-Pro-pNA (0.2 mM to 0.5 mM). The PEP enzymatic catalysis was assessed at 410 nm via a 96-well plate reader.
Next, using the obtained O.D. results, the Lineweaver-Burk and Dixon plot was generated.
Grafit version-7 (Erithacus Software Limited, UK) was employed for the Kinetic studies.

Chain of prolyl endopeptidase (PEP) (P27028 whole entry): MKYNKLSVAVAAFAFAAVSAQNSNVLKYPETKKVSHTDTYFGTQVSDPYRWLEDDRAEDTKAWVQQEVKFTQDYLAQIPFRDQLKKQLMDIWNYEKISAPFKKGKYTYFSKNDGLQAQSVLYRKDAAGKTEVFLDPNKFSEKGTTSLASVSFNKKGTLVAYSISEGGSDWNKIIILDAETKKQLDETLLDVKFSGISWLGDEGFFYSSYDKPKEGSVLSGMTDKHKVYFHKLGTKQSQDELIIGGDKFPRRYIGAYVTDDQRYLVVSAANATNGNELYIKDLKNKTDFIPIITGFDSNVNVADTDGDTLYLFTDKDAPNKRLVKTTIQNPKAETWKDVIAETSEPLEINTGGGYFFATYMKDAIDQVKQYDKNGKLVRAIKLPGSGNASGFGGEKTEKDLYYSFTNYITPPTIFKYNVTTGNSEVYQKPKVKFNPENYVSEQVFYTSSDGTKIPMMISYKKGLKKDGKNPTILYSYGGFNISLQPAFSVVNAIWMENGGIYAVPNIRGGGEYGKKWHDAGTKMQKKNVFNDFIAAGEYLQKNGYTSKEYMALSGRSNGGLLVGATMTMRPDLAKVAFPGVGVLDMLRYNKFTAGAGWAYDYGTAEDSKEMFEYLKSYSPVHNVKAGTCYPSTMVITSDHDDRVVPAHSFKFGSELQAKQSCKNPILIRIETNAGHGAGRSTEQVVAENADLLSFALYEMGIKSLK

SMILES	IC50 ([1]; mean ± SEM, repeated thrice; 30° C., pH 7.0; read-out: PEP inhibitory activity IC50) [µM]	IC50 ([1]; read-out: PEP inhibitory activity IC50; mean ± SEM, repeated thrice; 30° C., pH 7.0) [µM]	type of PEP inhibition ([2]; Lineweaver-Burk / Dixon plot)	Ki ([2]; read-out: Ki value, Lineweaver-Burk plot, reconfirmed by Dixon plot) [µM]
CC[C@H](C)[C@H](N)C1=N[C@H](C(=O)N[C@@H](CC(C)C)C(=O)N[C@H](CCC(=O)O)C(=O)N[C@H](C(=O)N[C@H]2CCCCNC(=O)[C@H](CC(N)=O)NC(=O)[C@@H](CC(=O)O)NC(=O)[C@H](Cc3cnc[nH]3)NC(=O)[C@@H](Cc3ccccc3)NC(=O)[C@H]([C@@H](C)CC)NC(=O)[C@@H](CCCN)NC2=O)[C@@H](C)CC)CS1 [bacitracin, reference compound] ({Ileψ(thiazoline)Cys}-L[dE]IK[dOrn]I[dF]H[dD]N; lactam 4-C)	114 ± 1.2			
C/C=C/c1ccc(OC)cc1 [trans-anethole, (E)-1-Methoxy-4-(1-propenyl) benzene]		5.7 ± 1.2	competitively inhibited; also recorded: competitive	5.656 ± 0.03
